Source: patent publication EP1903028A1, “Conjugates of glutamate and NMDA receptor channel blockers without excito-toxic effects” (Tschollar,, Werner, priority 2006, dated 2008)
Where two headings read alike, the source gives them in different places.

What was measured:
[1] = target: T1, aminopeptidase A (Rattus norvegicus, UniProt P50123); type: in vitro ADME
T1 construct: Hippocampi were removed on ice and coronal slices chopped (0.40 mm thick); from tissue; host or cells: rat hippocampal slices
T1 sequence (P50123 whole entry): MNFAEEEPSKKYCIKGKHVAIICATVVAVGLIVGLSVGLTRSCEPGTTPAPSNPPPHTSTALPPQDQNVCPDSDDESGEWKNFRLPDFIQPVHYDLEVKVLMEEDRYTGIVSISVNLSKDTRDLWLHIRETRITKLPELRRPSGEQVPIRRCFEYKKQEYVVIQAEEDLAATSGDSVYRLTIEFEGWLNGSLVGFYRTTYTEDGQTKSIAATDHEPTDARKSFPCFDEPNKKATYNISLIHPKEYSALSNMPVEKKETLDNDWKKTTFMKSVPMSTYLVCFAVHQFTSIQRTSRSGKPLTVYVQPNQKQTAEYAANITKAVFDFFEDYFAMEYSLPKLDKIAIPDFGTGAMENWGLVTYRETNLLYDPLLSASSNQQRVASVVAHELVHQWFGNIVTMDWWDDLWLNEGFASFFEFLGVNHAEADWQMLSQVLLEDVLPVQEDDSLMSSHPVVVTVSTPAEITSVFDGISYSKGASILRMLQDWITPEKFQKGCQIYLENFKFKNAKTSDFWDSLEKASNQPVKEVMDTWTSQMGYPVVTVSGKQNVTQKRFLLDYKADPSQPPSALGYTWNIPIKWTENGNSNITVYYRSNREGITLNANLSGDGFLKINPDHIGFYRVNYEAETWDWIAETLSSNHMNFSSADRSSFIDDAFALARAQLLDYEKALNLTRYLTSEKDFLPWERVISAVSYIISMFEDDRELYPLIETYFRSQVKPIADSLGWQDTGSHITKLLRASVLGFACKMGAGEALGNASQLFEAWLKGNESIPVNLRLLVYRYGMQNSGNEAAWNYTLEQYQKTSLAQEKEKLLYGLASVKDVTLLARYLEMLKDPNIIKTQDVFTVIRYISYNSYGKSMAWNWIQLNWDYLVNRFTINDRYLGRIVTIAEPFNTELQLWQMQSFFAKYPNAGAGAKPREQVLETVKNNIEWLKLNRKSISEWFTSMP
Method: Animals were housed in plastic cages, with free access to standard laboratory food and water, under controlled conditions of lighting, humidity and temperature. Rats were killed by decapitation and brains were quickly removed and immediately transferred in ice-cold artificial cerebrospinal fluid (aCSF) having the following composition (mM):125 NaCl, 3 KCl, 1.2 CaCl2, 1.2 MgSO4, 1 NaH2PO4, 22 NaHCO3 and 10 glucose (aerated with 95% O2 and 5% CO2 at 37°C), pH 7.2-7.4. Hippocampi were removed on ice and coronal slices chopped (0.40 mm thick). Slices were then incubated for 1 h in the presence of a 95% O2and 5% CO2 current (37°C). After washing with fresh aCSF (37°C), slices were transferred to a modified 24 chamber's cell culture well (2 slices per chamber) adapted to accept a constant current of 95% O2 and 5% CO2 all experiment time long. 2 ml aCSF was present in each chamber. Some experiments were performed in a modified aCSF containing 1mM EGTA in the absence of Ca^2+ ions. Drugs were added immediately before slices. After 1h incubation at 37°C, 80 µl aCSF per chamber was drawn in order to evaluate the metabolization time-course. After 3h incubation the experiment ended with a new 80 µl drawing.
Rat hippocampal slices, incubated in physiological conditions (95% 02; 5% CO2 at 37°C, pH 7.2-7.4), metabolized Compound 1 ((S)-4-amino-5-[(4,4-dimethylcyclohexyl)-amino]-5-oxo-pentanoic acid) into Compound 2 (4,4-dimethyl-cyclohexamine) + glutamic acid. After 1h incubation 2,5% ± 0,3% (n=2) Compound 1 was cleaved to yield Compound 2. After 3h incubation 9,0% ± 0,0% (n=2) Compound 1 was cleaved to Compound 2. In the presence of 3 µM amastatin, a selective inhibitor of aminopeptidase A, the cleavage of Compound 1 at 1h and 3h was reduced to 0,5% and 2,0%, respectively (see Figure 2). […] Since aminopeptidase A is a Ca++-dependent enzyme, the cleavage of Compound 1 was then examined under Ca++ -free conditions. In the absence of Ca++ ions, Compound 1 cleavage was inhibited by 76% at 1h and 3h. Aminopeptidase A therefore appears to be the principal enzyme responsible for the cleavage of Compound 1 into Compound 2 plus glutamate.

[2] = test system: rats; experiment: Radial maze learning test; type: in vivo; settings: for test acquisition in the radial maze: Compound 1: 1-30 mg/kg, versus control animals
Method: In another experiment of learning, a radial maze test was used. The radial maze consisted of eight arms radiating from a centre platform. The platform was 40 cm in diameter and the eight arms were 60 cm long, 13 cm wide, with walls 10 cm high. The surface of the maze was elevated 50 cm from the floor. Plastic food cups (4 cm in diameter) were at the end of each arm. One 50 mg micro-pellet was placed in a cup at the beginning of each trial. In the training session, the rat was placed in the centre of the platform facing arm #4 and allowed to freely explore the maze. The animal was left in the maze until it ate all of the 24 pellets placed three per arm.

[3] = test system: rats; experiment: Lever-holding operant behaviour (Skinner Box); type: in vivo; settings: 3-10-30 mg/kg i.p., 14 days, p=0.007 versus control
Method: In a further test of learning, lever-holding operant behaviour was tested in a standard rodent operant conditioning chamber (Skinner Box). Rats were trained to press the lever for water reward on a continuous reinforcement schedule, for which each lever pressing was rewarded. Daily sessions lasted 30 min and were performed under a green light. Water was restricted to a 30 min post-session period. After two days of stabilisation, rats were subjected to a visual discrimination schedule, in which a green light signalled the availability of the reinforcement for 60 sec, followed by a 30 sec interval with no reinforcement. Daily sessions lasted 30 min and were repeated for 14 days. Data were expressed as the Efficiency Index, which is a ratio of reinforced (correct responses during a session) to non-reinforced responses.

[4] = test system: rats; experiment: Scopolamine-induced memory impairment, passive avoidance; type: in vivo; settings: Compound 1: 1 and 10 mg/kg, i.p.; significant (p<0.05) at 10 mg/kg
Method: (§1) The cleavage is inhibited by the specific aminopeptidase A inhibitor amastatin. The amount of Compound 2 produced by cleavage of Compound 1 after 3 hours incubation with hippocampal slices is shown. AMA=Amastatin. • FIGS. 3A,B show inhibition of NMDA function by Compound 2. […] Effects of Compound 2 on [^3H]MK-801 binding enhanced by glycine (panel A), glutamate (panel B) and spermine (panel C). […] The 3H-MK-801 concentration was approx. 3 nM in all the experiments. […] Effect of Compound 1 administered i.p. twice a day (30 min before session and at 5.00 p.m.) for 4 days. […] Data are Mean ± s.e.m. of the efficiency indexes grouped in 2-day intervals. […] Values represent the median latency (sec) to enter the shock compartment and interquartile ranges. †P <0.05 vs. scopolamine + (FS), ‡P < 0.01 vs. saline + (FS) (log rank test). […] Values represent the median latency (s) to enter the shock compartment and interquartile ranges. **P < 0.01 vs. vehicle no ECS, †P< 0.05 and ‡P< 0.01 vs. vehicle + ECS (log rank test).
In this experiment, Compound 1 was tested to determine whether it could reverse scopolamine-induced memory impairment in a passive-avoidance paradigm in rats.

[5] = test system: gerbils subjected to bilateral occlusion of the carotid arteries; experiment: Neuro-protection after bilateral occlusion of the carotid arteries in vivo; set-up: species or system Mongolian gerbils
Method: This experiment investigated the neuro-protective effects of Compound 2 in gerbils subjected to bilateral occlusion of the carotid arteries. Mongolian gerbils were anaesthetised with halothane and the right and left common carotid arteries were occluded for a period of 5 min. […] The brains were cut into 10 µm-thick sections in the area of the hippocampus and sections were stained with cresyl violet. Quantitative assessment of area occupied by CA pyramidal neurons was performed using an image analyser (Kontron, KS300). For each animal, measurements were made in a defined field from both hippocampi in 4 coronal sections. The raw data were represented by the mean of 8 measures. The pattern of hippocampal neuro-degeneration following ischemia consisted of a significant decrease of neuronal nuclei area.
Compound 2 at a dose of 16 mg/kg, was 100% protective (see Figure 5).

[6] = test system: CA1 pyramidal neurons; experiment: NMDA excito-toxicity in hippocampal slices in vitro (area of CA1 pyramidal neurons); type: cell-based, rat; settings: 100 µM NMDA, compound added 15 min prior, 45 min incubation
Method: In this experiment, slices were obtained from hippocampi of young (8 day old) rats. After one hour of pre-incubation, NMDA was added to give a final concentration of 100 µM. Either Compound 1 or Compound 2 was added 15 min prior to NMDA and the incubation was carried out for 45 min. Three slices of each sample were collected and fixed with glutaraldehyde (5%). After embedding and freezing, sections (4 µm) were stained with Cresyl violet. Neuronal injury was studied with light microscopy using an imaging analyser (Kontron, KS300). The area occupied by CA1 pyramidal neurons was measured in an analyser-defined field. The pattern of hippocampal neuro-degeneration following NMDA-stimulation consisted of a significant decrease in neuronal nuclei area. […] In contrast, Compound 1 had no effect on NMDA-induced neuronal damage (results not shown).

[7] = in vivo; settings: rat, 30 mg/kg
Method: The average (± s.e.m.) plasma and cerebrospinal fluid levels of Compound 1, after a single i.p. or oral administration of 30 mg/kg plotted against time (h), are given in Figure 1. Compound 1 appeared in plasma shortly after both oral and i.p. administration, with a lag-time of 0.12 h. […] Compound 1 crossed the blood-CSF barrier very rapidly, showing lag times of 0.1-0.23 h after oral and i.p. administration, respectively. The maximum concentration of Compound 1 in the CSF was reached 45-60 min after oral and i.p. administration. […] Compound 1 therefore efficiently crosses into the CSF in rats.

[8] = Electroconvulsive shock-induced memory impairment; type: in vivo; settings: Compound 1: 3, 10 and 30 mg/kg; significant at 10 and 30 mg/kg (P <0.05, P <0.01)
Method: as §1
In another model of memory impairment, electroconvulsive shock was employed as a memory de-stabilizer. […] For doses of 10 and 30 mg/kg the effect was statistically significant (P <0.05 and P <0.01, respectively) (see Figure 7B).

[9] = test system: rats; experiment: Step-through active avoidance test (acquisition of active avoidance behaviour); type: in vivo; settings: for percent of conditioned avoidance: Compound 1: 3 and 10 mg/kg i.p. twice a day, 5 days, p<0.001
Method: as §1
The acquisition of active avoidance behaviour was evaluated during one 40-trial daily session for 5 consecutive days. Compound 1, when given at doses of 3 and 10 mg/kg, increased the percent of conditioned avoidance (see Figure 6A).

[10] = test system: NMDA receptor; experiment: [3H]MK-801 binding to washed rat cortical membranes enriched for NMDA receptors; settings: binding enhanced by glycine, glutamate or spermine; 10, 100, 1000 µM Compound 2; approx. 3 nM 3H-MK-801
Method: as §1
MK-801 (dizocilpine) is an open-channel ligand of the NMDA Ca channel. Washed rat cortical membranes enriched for NMDA receptors were incubated with increasing concentrations of the co-agonists glycine or glutamate, or the positive modulator spermine, and Compound 2. The binding of ^3H MK801 was then measured. […]

[11] = target: T2, NMDAR (subtype NR1/NR2A) (Homo sapiens, UniProt Q05586+Q12879); experiment: Glutamate-evoked currents in NMDA receptor-transfected oocytes; type: cell-based; settings: glutamate 10uM, 100uM glycine, read-out: IC50, inhibition of glutamate-stimulated Ca current
T2 construct: expressed in transfected cells
T2 sequence (Q12879 23-1464, other chains not shown): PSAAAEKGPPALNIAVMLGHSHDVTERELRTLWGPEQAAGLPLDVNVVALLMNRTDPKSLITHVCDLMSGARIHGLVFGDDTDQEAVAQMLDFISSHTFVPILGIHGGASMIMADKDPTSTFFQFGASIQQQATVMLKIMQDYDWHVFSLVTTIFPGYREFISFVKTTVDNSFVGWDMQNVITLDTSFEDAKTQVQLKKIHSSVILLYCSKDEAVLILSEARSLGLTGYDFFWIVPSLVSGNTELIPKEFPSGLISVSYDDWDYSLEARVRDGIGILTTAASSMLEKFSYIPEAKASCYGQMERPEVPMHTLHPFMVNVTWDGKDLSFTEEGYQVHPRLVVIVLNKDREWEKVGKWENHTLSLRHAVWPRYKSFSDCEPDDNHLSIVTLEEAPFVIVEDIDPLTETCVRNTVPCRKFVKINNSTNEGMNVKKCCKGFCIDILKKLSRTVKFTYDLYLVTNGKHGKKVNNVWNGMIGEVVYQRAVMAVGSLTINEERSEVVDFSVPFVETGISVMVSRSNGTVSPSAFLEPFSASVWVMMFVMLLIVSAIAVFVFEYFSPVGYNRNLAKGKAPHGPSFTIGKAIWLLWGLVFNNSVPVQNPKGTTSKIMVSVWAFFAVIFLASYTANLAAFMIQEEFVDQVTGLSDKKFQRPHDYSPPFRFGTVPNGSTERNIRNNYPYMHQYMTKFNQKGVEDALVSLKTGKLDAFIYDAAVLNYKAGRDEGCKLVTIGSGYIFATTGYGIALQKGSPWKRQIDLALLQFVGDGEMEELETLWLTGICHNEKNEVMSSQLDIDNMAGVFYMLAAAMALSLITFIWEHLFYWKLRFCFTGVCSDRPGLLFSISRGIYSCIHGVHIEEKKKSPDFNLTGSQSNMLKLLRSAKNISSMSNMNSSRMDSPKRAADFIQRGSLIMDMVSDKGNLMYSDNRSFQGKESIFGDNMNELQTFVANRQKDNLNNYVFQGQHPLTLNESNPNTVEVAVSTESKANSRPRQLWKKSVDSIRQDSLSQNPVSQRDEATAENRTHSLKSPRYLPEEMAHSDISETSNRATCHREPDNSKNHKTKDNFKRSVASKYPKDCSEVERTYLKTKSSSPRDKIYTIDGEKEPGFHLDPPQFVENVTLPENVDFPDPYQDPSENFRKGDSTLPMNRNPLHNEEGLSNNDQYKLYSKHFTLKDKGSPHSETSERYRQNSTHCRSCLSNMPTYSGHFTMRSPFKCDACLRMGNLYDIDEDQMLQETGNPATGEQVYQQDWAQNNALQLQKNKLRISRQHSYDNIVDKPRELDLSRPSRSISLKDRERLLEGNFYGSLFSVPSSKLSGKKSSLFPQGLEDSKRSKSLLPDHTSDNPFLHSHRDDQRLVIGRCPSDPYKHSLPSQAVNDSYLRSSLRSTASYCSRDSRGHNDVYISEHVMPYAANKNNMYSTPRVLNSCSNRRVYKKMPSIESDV
Method: Glutamate stimulates an inward Ca current through the NMDA receptor channel by binding to a specific ligand-binding site at the NR1/NR2 subunit interface and opening the ion channel to the influx of calcium. Glutamate (10uM) was added to oocytes transfected with the NMDAR (subtype NR1/NR2A) in the presence of 100uM glycine and increasing amounts of Compound 2.

CC(C)C[C@@H](N)[C@H](O)C(=O)N[C@H](C(=O)N[C@H](C(=O)N[C@@H](CC(=O)O)C(=O)O)C(C)C)C(C)C [Amastatin, reference compound]
IC50 ([1]; rat hippocampal slices, read-out: IC50, inhibition of cleavage of Compound 1): 0.3 µM

CC1(C)CCC(NC(=O)[C@@H](N)CCC(=O)O)CC1 [Compound 1, (S)-4-amino-5-(4,4-dimethylcyclohexylamino)-5-oxopentanoic acid]
number of sessions to reach acquisition criterion ([2]; 10 and 30 mg/kg (P <0.05, P <0.01, respectively)): decreased
test acquisition in the radial maze [2]: faster test acquisition
percent of reinforced responses (Efficiency Index) [3]: increased in a dose-dependent manner
retention latency, reversal of scopolamine-induced memory impairment [4]: dose-dependently increased latency
mortality ([5]; 50mg/kg, ischemia alone 50% 7-day mortality): zero
effect on NMDA-induced neuronal damage [6]: no effect
Tmax [7]: 1 h
plasma lag-time [7]: 0.12 h
time to maximum concentration in the CSF [7]: 45 to 60 min
Kp ([7]; ip): 0.48
lag time for crossing the blood-CSF barrier ([7]; ip): 0.23 h
Kp ([7]; po): 0.62
lag time for crossing the blood-CSF barrier ([7]; po): 0.1 h
step-down latency after electroconvulsive shock [8]: dose-dependently increased step-down latency
Compound 1 cleavage inhibited ([1]; in the absence of Ca++ ions, at 1h and 3h): 76%
Compound 1 cleaved to yield Compound 2 ([1]; rat, 1 h, pH 7.2): 2,5% ± 0,3%
Compound 1 cleaved to Compound 2 ([1]; rat, 3 h, pH 7.2): 9,0% ± 0,0%
percent of conditioned avoidance [9]: increased
uncoordinated escape responses or spontaneous inter-trial responses ([9]; rat, in vivo): did not affect

CC1(C)CCC(N)CC1 [Compound 2, 4,4-dimethyl-cyclohexylamine]
test acquisition in the radial maze [2]: without effect
retention latency, reversal of scopolamine-induced memory impairment [4]: unable to reverse
inhibition of MK-801 binding [10]: inhibited MK-801 binding in a dose-dependent fashion
protective (7-day mortality) ([5]; 16 mg/kg, 1 hour prior to ischemia, ischemia alone 50% mortality): 100%
protection from neuronal degeneration and death ([5]; administered 1 hour prior to ischemia): dose-dependently protected
IC50 ([6]; Rattus norvegicus, Pyramidal neuron, slices of 8 day old rats, read-out: IC50, prevention of NMDA-induced damage): 189 ± 42.4 µM
step-down latency after electroconvulsive shock [8]: without effect
percent of conditioned avoidance [9]: without activity
IC50 ([11]; 100 millivolts): 30 µM
IC50 ([11]; -60 millivolts): 117 µM
